{
  "source": "patent US10663473B2",
  "about": "“Method of identifying a status of a mucosal intestinal epithelial barrier to improve treatment of inflammatory bowel disease” (Maximus Diagnostic Technologies LLC, priority 2016, dated 2020)",
  "origin": "cited, not measured here",
  "test_system": "IBD patients",
  "conditions": "cited from earlier work",
  "data": [
    {"substance": "golimumab: monoclonal antibody to TNF-alpha sold under the trademark Simponi", "values": [
      {"measurement": "short-term and long-term clinical response rate", "setting": "all UC patients", "value": 50, "unit": "%"}
    ]},
    {"substance": "vedolizumab: monoclonal antibody that specifically binds to integrin α4β7, sold under the name ENTYVIO by Takeda Pharmaceuticals", "values": [
      {"measurement": "clinical response rate", "setting": "particularly for Crohn's disease, compared with anti-TNF agents", "value": "low"}
    ]}
  ]
}
